Data published in patent US11931338B2, “Nitrilated psilocybin derivatives and methods of using” (Enveric Biosciences Canada Inc., priority 2020, dated 2024).

Legend:
5-HT1A receptor = target: T1, 5-HT1A receptor (Homo sapiens, UniProt P08908); test: cAMP-Glo assay in CHO-K1/5-HT1A/Gα15 (+5-HT1A) and CHO-K1/Gα15 (−5-HT1A) cells; details: for luminescence (cAMP) in +5HT1A cell culture at various compound concentrations: 5-HT1A activity: fixed (4 μM) forskolin, +5HT1A cells, FIG. 14B-14D; for relative cAMP levels with increasing compound concentration in +5HT1A and −5HT1A cells: constant (4 μM) forskolin, 5-HT1AR cells vs CHO-K1 cells, n=3, FIG. 14F, 14G
T1 sequence (P08908 1-422): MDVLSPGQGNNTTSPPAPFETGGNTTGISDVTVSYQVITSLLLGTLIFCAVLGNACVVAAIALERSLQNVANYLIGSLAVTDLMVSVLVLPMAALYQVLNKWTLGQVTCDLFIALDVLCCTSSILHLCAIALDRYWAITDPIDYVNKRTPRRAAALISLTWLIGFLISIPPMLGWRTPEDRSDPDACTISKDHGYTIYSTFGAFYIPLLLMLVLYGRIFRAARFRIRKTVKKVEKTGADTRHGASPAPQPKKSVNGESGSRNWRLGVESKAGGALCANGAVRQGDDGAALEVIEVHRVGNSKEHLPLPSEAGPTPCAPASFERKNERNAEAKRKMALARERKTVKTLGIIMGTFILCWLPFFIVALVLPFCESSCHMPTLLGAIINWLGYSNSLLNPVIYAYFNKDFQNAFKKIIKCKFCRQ
Text: CHO-K1/Gα15 (GenScript, M00257) (−5-HT1A) and CHO-K1/5-HT1A/Gα15 (GenScript, M00330) (+5-HT1A) cells lines were used. Briefly, CHO-K1/Gα15 is a control cell line that constitutively expresses Gα15 which is a promiscuous Gq protein. This control cell line lacks any transgene encoding 5-HT1A receptors, but still respond to forskolin; thus, cAMP response to forskolin should be the same regardless of whether or not 5-HT1A agonists are present. Conversely, CHO-K1/5-HT1A/Gα15 cells stably express 5-HT1A receptor in the CHO-K1 host background. […] In contrast, tryptophan is not known to activate 5-HT1A receptors, and was thus used as a negative control. Cells were maintained in complete growth media as recommended by supplier (GenScript) which is constituted as follows: Ham's F12 Nutrient mix (HAM's F12, GIBCO #11765-047) with 10% fetal bovine serum (FBS) (Thermo Scientific #12483020), 200 μg/ml zeocin (Thermo Scientific #R25005) and/or 100 μg/ml hygromycin (Thermo Scientific #10687010). The cells were cultured in a humidified incubator with 37° C. and 5% CO2. Cells maintenance was carried out as recommended by the cell supplier. Briefly, vials with cells were removed from the liquid nitrogen and thawed quickly in 37° C. water bath. Just before the cells were completely thawed the vial's outside was decontaminated by 70% ethanol spray. The cells suspension was then retrieved from the vial and added to warm (37° C.) complete growth media, and centrifuged at 1,000 rpm for 5 minutes. The supernatant was discarded and the cell pellet was then resuspended in another 10 ml of complete growth media, and added to the 10 cm cell culture dish (Greiner Bio-One #664160). The media was changed every third day until the cells were about 90% confluent. The ˜90% confluent cells were then split 10:1 for maintenance or used for experiment. As 5-HT1AR activation inhibits cAMP formation, the agonist activity of test molecules on 5-HT1AR was measured via the reduction in the levels of cAMP produced due to application of 4 μM forskolin. The change in intracellular cAMP levels due to the treatment of novel molecules was measured using cAMP-Glo Assay kit (Promega #V1501). Briefly, +5-HT1A cells were seeded on 1-6 columns and base −5-HT1A cells were seeded on columns 7-12 of the white walled clear bottom 96-well plate (Corning, #3903). Both cells were seeded at the density of 30,000 cells/well in 100 μl complete growth media and cultured 24 hrs in humidified incubator at 37° C. and 5% CO2. On the experiment day, the media of cells was replaced with serum/antibiotic free culture media. Then the cells were treated for 20 minutes with test molecules dissolved in induction medium (serum/antibiotic free culture media containing 4 μM forskolin, 500 μM IBMX (isobutyl-1-methylxanthine, Sigma-Aldrich, Cat. #17018) and 100 μM (RO 20-1724, Sigma-Aldrich, Cat. #B8279)). Forskolin induced cAMP formation whereas IBMX and RO 20-1724 inhibited the degradation of cAMP. PKA was added to the lysate, mixed, and subsequently the substrate of the PKA was added. PKA was activated by cAMP, and the amount of ATP consumed due to PKA phosphorylation directly corresponded to cAMP levels in the lysate. Reduced ATP caused reduced conversion of luciferin to oxyluciferin, conferring diminished luminescence as the result of 5-HT1A activation.

5-HT2A receptor = target: T2, 5-HT2A receptor (Homo sapiens, UniProt P28223); test: [3H]ketanserin competition binding assay (Scintillation Proximity Assay) with membranes containing 5-HT2A; details: fixed (1 nM) [3H]ketanserin; FIG. 13C, 13D
T2 construct: purchased PerkinElmer ES-313-M400UA
Text: Evaluation of drug binding is an essential step to characterization of all drug-target interactions (Fang 2012, Exp Opin Drug Discov 7:969). The binding affinity of a drug to a target is traditionally viewed as an acceptable surrogate of its in vivo efficacy (Núñez et al., 2012, Drug Disc Today 17: 10). Competition assays, also called displacement or modulation binding assays, are a common approach to measure activity of a ligand at a target receptor (Flanagan 2016, Methods Cell Biol 132: 191). In these assays, standard radioligands acting either as agonists or antagonists are ascribed to specific receptors. […] After incubation, the samples were read on a MicroBeta 2 Microplate Counter (Perkin Elmer). […] Equilibrium binding constants for ketanserin (Kd) were determined from saturation binding curves using the ‘one-site saturation binding analysis’ method of GraphPad PRISM software (Version 9.2.0). […] Ki values were calculated from the competition displacement data using the competitive binding analysis from GraphPad PRISM software. […] Specific binding in counts per minute (cpm) was calculated by subtracting non-specific binding from total binding. Specific binding (pmol/mg) was calculated from pmol of [^3H]ketanserin bound per mg of protein in the assay. The Kd was calculated by fitting the data with the one-site binding model of PRISM software (version 9.2.0).

T2 sequence (P28223 whole entry): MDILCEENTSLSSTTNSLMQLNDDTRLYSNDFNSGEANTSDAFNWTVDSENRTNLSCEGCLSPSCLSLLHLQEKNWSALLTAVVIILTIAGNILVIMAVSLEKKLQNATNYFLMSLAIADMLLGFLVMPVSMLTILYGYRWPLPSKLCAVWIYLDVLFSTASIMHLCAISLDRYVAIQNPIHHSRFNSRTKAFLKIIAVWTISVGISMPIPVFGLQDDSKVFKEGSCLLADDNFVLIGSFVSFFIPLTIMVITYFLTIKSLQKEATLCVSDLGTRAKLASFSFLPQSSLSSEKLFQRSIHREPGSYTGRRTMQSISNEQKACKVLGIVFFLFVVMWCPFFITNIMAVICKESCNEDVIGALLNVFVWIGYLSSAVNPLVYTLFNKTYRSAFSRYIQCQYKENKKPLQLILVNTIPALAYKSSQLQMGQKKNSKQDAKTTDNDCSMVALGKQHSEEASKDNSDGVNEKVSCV

Structure (SMILES): CN(C)CCc1c[nH]c2ccccc12 [DMT]
- luminescence (cAMP) in +5HT1A cell culture at various compound concentrations: 5-HT1A activity (5-HT1A receptor): 5-HT1A activity

Structure (SMILES): CC(=O)NCCc1c[nH]c2c(C)cc(C#N)cc12 [compound (VIII), N-[2-(5-cyano-7-methyl-1H-indol-3-yl)ethyl]acetamide]
- relative cAMP levels with increasing compound concentration in +5HT1A and −5HT1A cells (5-HT1A receptor): agonist of 5HT1A
- luminescence (cAMP) in +5HT1A cell culture at various compound concentrations: 5-HT1A activity (5-HT1A receptor): 5-HT1A activity

Structure (SMILES): CN(C)CCc1c[nH]c2cccc(O)c12 [psilocin]
- competition binding curve against [3H]ketanserin at the 5-HT2A receptor (5-HT2A receptor): binding

Structure (SMILES): NCCc1c[nH]c2ccc(O)cc12 [serotonin]
- relative cAMP levels with increasing compound concentration in +5HT1A and −5HT1A cells (5-HT1A receptor): agonist of 5HT1A

Structure (SMILES): N[C@@H](Cc1c[nH]c2ccccc12)C(=O)O [tryptophan]
- luminescence (cAMP) in +5HT1A cell culture at various compound concentrations: 5-HT1A activity (5-HT1A receptor): lack of 5-HT1A activity
- competition binding curve against [3H]ketanserin at the 5-HT2A receptor (5-HT2A receptor): no binding
